The text below walks through data of US20260265265A1, “NOVEL BENZIMIDAZOLONE DERIVATIVE COMPOUND AS AUTOTAXIN INHIBITOR” (LG CHEM, LTD., priority 2023, published 2026).

This test has as its target T1, Recombinant Human ENPP-2/Autotaxin (Homo sapiens, UniProt Q13822).
T1 construct: purchased R&D systems 5255-EN
In words: LysoPLD activity measurement (autotaxin enzyme inhibition, choline release, TOOS reagent). Conditions: LysoPLD inhibitory activity; substrate 14:0 LysoPC; absorbance at 555 nm. Type of test: biochemical. The essentials: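 Autotaxin lysoPLD activity was read as choline released from 14:0 LysoPC, detected by TOOS reagent absorbance. Compound was preincubated 30 min, then substrate diluted to 300 μM was added and the reaction ran 90 minutes at 37° C. Controls contained 1% DMSO.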

What is called IC50 is the point on the concentration scale where inhibition reaches its midpoint. On to `CC(C)(F)Cc1ccc(-n2c(=O)n(C3(c4cccc(C(=O)O)c4)CC3)c3ccc(Cl)cc32)cc1` [Example 217, 3-(1-(5-chloro-3-(4-(2-fluoro-2-methylpropyl)phenyl)-2-oxo-2,3-dihydro-1H-benzo[d]imidazol-1-yl)cyclopropyl)benzoic acid], for which the IC50 was 10 to 100 nM.

`CN(C)c1ccc(-n2c(=O)n(C3(c4cccc(C(=O)O)c4F)CC3)c3ccc(Cl)cc32)cc1` [Example 70, 3-(1-(5-chloro-3-(4-(dimethylamino)phenyl)-2-oxo-2,3-dihydro-JH-benzo[d]imidazol-1-yl)cyclopropyl)-2-fluorobenzoic acid]: the IC50 was below 10 nM.

Regarding `O=C(O)c1cccc(C2(n3c(=O)n(-c4ccc(C5(O)CCC5)cc4)c4cc(Cl)ccc43)CC2)c1` [Example 256, 3-(1-(5-chloro-3-(4-(1-hydroxycyclobutyl)phenyl)-2-oxo-2,3-dihydro-1H-benzo[d]imidazol-1-yl)cyclopropyl)benzoic acid], the IC50 was below 10 nM.

Consider `C[C@H]1COCCN1C(=O)Cc1ccc(-n2c(=O)n(C3(c4cccc(C(=O)O)c4)CC3)c3ccc(Cl)cc32)cc1` [Example 177, (S)-3-(1-(5-chloro-3-(4-(2-(3-methylmorpholino)-2-oxoethyl)phenyl)-2-oxo-2,3-dihydro-1H-benzo[d]imidazol-1-yl)cyclopropyl)benzoic acid], for which the concentration for half-maximal inhibition (IC50) fell in the range of 10 to 100 nM.

`O=C(O)c1cccc(C2(n3c(=O)n(-c4ccc(CC(=O)N5CCCC5)cc4)c4cc(Cl)ccc43)CC2)c1` [Example 170, 3-(1-(5-chloro-2-oxo-3-(4-(2-oxo-2-(pyrrolidin-1-yl)ethyl)phenyl)-2,3-dihydro-1H-benzo[d]imidazol-1-yl)cyclopropyl)benzoic acid]: the IC50 is below 10 nM.

In the case of `O=C(O)c1cccc(C2(n3c(=O)n(-c4ccc(-c5nnc(C6CC6)o5)cc4)c4cc(Cl)ccc43)CC2)c1` [Example 263, 3-(1-(5-chloro-3-(4-(5-cyclopropyl-1,3,4-oxadiazol-2-yl)phenyl)-2-oxo-2,3-dihydro-1H-benzo[d]imidazol-1-yl)cyclopropyl)benzoic acid], the IC50 was below 10 nM.

Regarding `O=C(O)c1cccc(C2(n3c(=O)n(-c4ccc(N5CC6(CCOCC6)C5)cc4)c4cc(Cl)ccc43)CC2)c1` [Example 148, 3-(1-(3-(4-(7-oxa-2-azaspiro[3.5]nonane-2-yl)phenyl)-5-chloro-2-oxo-2,3-dihydro-1H-benzo[d]imidazol-1-yl)cyclopropyl)benzoic acid], the IC50 was below 10 nM.

In the case of `CN(C)c1ccc(-n2c(=O)n(Cc3cccc(C(=O)O)c3F)c3ccc(Cl)cc32)cc1` [Example 39, 3-((5-chloro-3-(4-(dimethylamino)phenyl)-2-oxo-2,3-dihydro-1H-benzo[d]imidazol-1-yl)methyl)-2-fluorobenzoic acid], the concentration for half-maximal inhibition (IC50) lay within 10 to 100 nM.

For `O=C(O)c1cccc(Cn2c(=O)n(-c3ccc(C(=O)N4CCCC4)cc3)c3cc(Cl)ccc32)c1` [Example 45, 3-((5-chloro-2-oxo-3-(4-(pyrrolidine-1-carbonyl)phenyl)-2,3-dihydro-1H-benzo[d]imidazol-1-yl)methyl)benzoic acid], the IC50 is below 10 nM.

Take `O=C(O)c1cccc(Cn2c(=O)n(-c3ccc(F)cc3)c3cc(Cl)ccc32)c1` [Example 3, 3-((5-chloro-3-(4-fluorophenyl)-2-oxo-2,3-dihydro-1H-benzo[d]imidazol-1-yl)methyl)benzoic acid]: the IC50 is 100 to 1000 nM.

On to `O=C(O)c1cccc(Cn2c(=O)n(-c3ccc(C(=O)O)cc3F)c3cc(Cl)ccc32)c1` [Example 46, 4-(3-(3-carboxybenzyl)-6-chloro-2-oxo-2,3-dihydro-1H-benzo[d]imidazol-1-yl)-3-fluorobenzoic acid], for which the half-maximal inhibitory concentration (IC50) was 100 to 1000 nM.

As to `O=C(O)c1cccc(C2(n3c(=O)n(-c4ccc(C5(CO)CCC5)cc4)c4cc(Cl)ccc43)CC2)c1` [Example 239, 3-(1-(5-chloro-3-(4-(1-(hydroxymethyl)cyclobutyl)phenyl)-2-oxo-2,3-dihydro-1H-benzo[d]imidazol-1-yl)cyclopropyl)benzoic acid], the IC50 was below 10 nM.
